This is an account of results in ChEMBL document CHEMBL4190365, “Synthesis and antiproliferative properties of new hydrophilic esters of triterpenic acids” (Eur J Med Chem, 2017).

Activity calls are given as the source filed them. The calls are words filed in the database; no cut-off is given here. Where only a bound is given, the exact number is not on record here.

The subject of assay [1] is G-361. In words: Induction of cell cycle arrest in human G361 cells assessed as increase in accumulation at subG1 phase at 1 uM incubated for 24 hrs by propidium iodide staining based flow cytometry. The assay is classed as functional. In general terms: Flow cytometry measures light scatter and fluorescence of single cells or particles in a stream.
In assay [2] the test system is G-361. In words: Induction of cell cycle arrest in human G361 cells assessed as increase in accumulation at subG1 phase at 10 uM incubated for 24 hrs by propidium iodide staining based flow cytometry. Format: functional.
In assay [3] the test system is G-361. Briefly: Induction of cell cycle arrest in human G361 cells assessed as increase in accumulation at G0/G1 phase at 1 uM incubated for 24 hrs by propidium iodide staining based flow cytometry. Format: functional.
The test system of assay [4] is G-361. In words: Induction of cell cycle arrest in human G361 cells assessed as increase in accumulation at G0/G1 phase at 10 uM incubated for 24 hrs by propidium iodide staining based flow cytometry. Format: functional.
The subject of assay [5] is G-361. Briefly: Induction of cell cycle arrest in human G361 cells assessed as reduction in accumulation at G2M phase at 1 uM incubated for 24 hrs by propidium iodide staining based flow cytometry. Format: functional.
Assay [6] deals with G-361. Briefly: Induction of cell cycle arrest in human G361 cells assessed as reduction in accumulation at G2M phase at 10 uM incubated for 24 hrs by propidium iodide staining based flow cytometry. The assay is classed as functional.
Assay [7] has as its system G-361. Briefly: Induction of apoptosis in human G361 cells assessed as induction of caspase-3 expression at 1 uM incubated for 24 hrs by Western blot method. Format: functional, cell-based. In general terms: In western blotting, separated proteins are transferred to a membrane and probed.
For assay [8], the system named is G-361. Briefly: Induction of apoptosis in human G361 cells assessed as induction of caspase-3 expression at 10 uM incubated for 24 hrs by Western blot method. Format: functional, cell-based.
Assay [9] relates to G-361. Briefly: Induction of apoptosis in human G361 cells assessed as induction of PARP cleavage at 10 uM incubated for 24 hrs by Western blot method. Format: functional, cell-based.
Assay [10] deals with G-361. In words: Induction of apoptosis in human G361 cells assessed as reduction total Rb protein levels at 10 uM incubated for 24 hrs by Western blot method. Format: functional, cell-based.
The subject of assay [11] is G-361. Briefly: Induction of apoptosis in human G361 cells assessed as effect on Bcl2 protein levels at 10 uM incubated for 24 hrs by Western blot method. The assay is classed as functional, cell-based.
Assay [12] concerns G-361. In words: Induction of apoptosis in human G361 cells assessed as effect on Bcl2 protein levels at 1 uM incubated for 24 hrs by Western blot method. The assay is classed as functional, cell-based.
Assay [13] concerns G-361. In words: Induction of apoptosis in human G361 cells assessed as reduction Mcl1 protein levels at 10 uM incubated for 24 hrs by Western blot method. The assay is classed as functional, cell-based.
In assay [14] the test system is G-361. In words: Induction of apoptosis in human G361 cells assessed as reduction Mcl1 protein levels at 1 uM incubated for 24 hrs by Western blot method. The assay is classed as functional, cell-based.
A further assay deals with CCRF-CEM. In words: Cytotoxicity in human CEM cells assessed as reduction in cell viability incubated for 72 hrs by calcein AM cytotoxicity assay. Format: functional, cell-based.
In another assay the test system is MCF7. In words: Cytotoxicity in human MCF7 cells assessed as reduction in cell viability incubated for 72 hrs by calcein AM cytotoxicity assay. The assay is classed as functional, cell-based. The conditions noted are these: Homo sapiens, MCF7, 72 h.
The subject of the next assay is HeLa. In words: Cytotoxicity in human HeLa cells assessed as reduction in cell viability incubated for 72 hrs by calcein AM cytotoxicity assay. Format: functional, cell-based. The conditions noted are these: Homo sapiens, HeLa, 72 h.
Assay [15] deals with G-361. Briefly: Cytotoxicity in human G361 cells assessed as reduction in cell viability incubated for 72 hrs by calcein AM cytotoxicity assay. The conditions noted are these: Homo sapiens, G-361, 72 h. The assay is classed as functional, cell-based.
The test system of the next assay is BJ. In words: Cytotoxicity in human BJ cells assessed as reduction in cell viability incubated for 72 hrs by calcein AM cytotoxicity assay. The assay is classed as functional, cell-based. The conditions noted are these: Homo sapiens, BJ, 72 h.
Assay [16] deals with G-361. In words: Induction of apoptosis in human G361 cells assessed as induction of caspase-7 degradation in to cleaved fragments at 1 uM incubated for 24 hrs by Western blot method. Format: functional, cell-based.
The test system of assay [17] is G-361. In words: Induction of apoptosis in human G361 cells assessed as induction of caspase-7 degradation in to cleaved fragments at 10 uM incubated for 24 hrs by Western blot method. The assay is classed as functional, cell-based.
In assay [18] the test system is G-361. In words: Induction of apoptosis in human G361 cells assessed as increase in caspase3/7 activity at 1 uM using Ac-DEVD-AMC substrate incubated for 24 hrs by fluorometric assay relative to untreated control. The assay is classed as functional.
Assay [19] deals with G-361. In words: Induction of apoptosis in human G361 cells assessed as increase in caspase3/7 activity at 10 uM using Ac-DEVD-AMC substrate incubated for 24 hrs by fluorometric assay relative to untreated control. Format: functional.

Consider `CC(=O)O[C@H]1CC[C@]2(C)[C@H]3CC[C@@H]4C5=C(C(C)C)C(=O)C[C@]5(C(=O)OCCN5CCCCC5)CC[C@@]4(C)[C@]3(C)CC[C@H]2C1(C)C` [listing 1 of 2 here], for which the result in the assay on G-361 [1], in the assay on G-361 [2], in the assay with G-361 [3], with G-361 [4], in the assay with G-361 [5] and in the assay with G-361 [6] was Active. The result in the assay on G-361 [9], in the assay on G-361 [10], in the assay with G-361 [13] and with G-361 [14] was Active. Besides, the result in the assay on G-361 [7], with G-361 [8], in the assay with G-361 [11] and in the assay on G-361 [12] was inactive.
On to `CC(=O)O[C@H]1CC[C@]2(C)[C@H]3CC[C@@H]4C5=C(C(C)C)C(=O)C[C@]5(C(=O)OCC(=O)OCc5ccccc5)CC[C@@]4(C)[C@]3(C)CC[C@H]2C1(C)C`, for which the IC50 – broadly, the concentration needed to halve the response being measured – in the assay with CCRF-CEM (Homo sapiens, CCRF-CEM, 72 h) was 6 µM; in the assay on MCF7, 1.8 µM; with HeLa it was 2.8 µM; in the assay with G-361 [15], 1.6 µM; in the assay with BJ, over 50 µM. Also, the result in the assay with G-361 [1], in the assay with G-361 [2], in the assay with G-361 [3], in the assay on G-361 [4], with G-361 [5] and in the assay with G-361 [6] was Active. Moreover, the result with G-361 [16], in the assay with G-361 [17], in the assay with G-361 [9], in the assay with G-361 [10], in the assay on G-361 [13] and with G-361 [14] was Active. The outcome in the assay with G-361 [7], with G-361 [8], in the assay with G-361 [11] and in the assay with G-361 [12] was inactive. Also, the “fold change (FC)” value in the assay with G-361 [18] was determined as 3.
With `C=C(C)[C@@H]1CC[C@]2(C(=O)O[C@@H]3O[C@H](COC(C)=O)[C@H](OC(C)=O)[C@H](OC(C)=O)[C@H]3OC(C)=O)CC[C@]3(C)[C@H](CC[C@@H]4[C@@]5(C)CC[C@H](O)C(C)(C)[C@@H]5CC[C@]43C)[C@@H]12`, the IC50 with CCRF-CEM (Homo sapiens, CCRF-CEM, 72 h) was 9 µM; in the assay with MCF7, 2.5 µM; in the assay on HeLa, 3.3 µM; in the assay with G-361 [15], 3.4 µM; in the assay with BJ, over 50 µM. Besides, the result with G-361 [1], in the assay on G-361 [2], in the assay with G-361 [3], with G-361 [4], in the assay with G-361 [5] and in the assay with G-361 [6] was Active. In addition, the outcome in the assay with G-361 [16], with G-361 [17], in the assay on G-361 [9], in the assay on G-361 [10], in the assay on G-361 [13] and in the assay on G-361 [14] was Active. In addition, the outcome in the assay with G-361 [7], in the assay with G-361 [8], in the assay with G-361 [11], with G-361 [12], with G-361 [19] and in the assay on G-361 [18] was inactive.
On to `CC(=O)O[C@H]1CC[C@]2(C)[C@H]3CC[C@@H]4C5=C(C(C)C)C(=O)C[C@]5(C(=O)OCCN5CCCCC5)CC[C@@]4(C)[C@]3(C)CC[C@H]2C1(C)C` [listing 2 of 2 here], for which the half-maximal inhibitory concentration (IC50) in the assay with CCRF-CEM (ccrf-cem) was 16.2 µM; in the assay with MCF7, 7 µM; in the assay on HeLa, 8.7 µM; in the assay with G-361 [15], 7 µM; with BJ, 49.1 µM. Besides, the “fold change (FC)” value with G-361 [19] was “<=4”.
